Measured values: publication PMC12084297, “Cytoplasmic connexin43-microtubule interactions promote glioblastoma stem-like cell maintenance and tumorigenicity” (Cell Death & Disease, 2025)

Legend:
VTC-001 GSCs = experiment: MTS viability, VTC-001 GSCs; assay type: cell-based, human; settings: VTC-001 adherent GSCs, TMZ 50 μM, 4 days
Protocol: (§1) Cells were plated in 96-well plates (2000–5000 cells per well) and treated the following day with TMZ (10, 50, or 100 μM), antennapedia, JM2-scrambled, or JM2 (10, 50, or 100 μM). After 4 days, cell viability was monitored following addition of MTS reagent (Promega) according to manufacturer’s instructions. The absorbance at 490 nm was measured using a SpectraMax i3 or iD3 microplate reader (Molecular Devices). For the caspase 3/7 activity assay, cells were plated in 96-well plates (2000 cells per well) and treated with TMZ or peptides as described above. The activity of caspase 3/7 was measured after 48 h using the Caspase-Glo® 3/7 assay (Promega) following the manufacturer’s instructions. Fold change of caspase 3/7 activity was defined as the ratio of caspase 3/7 luminescence in treated cells compared to controls.

VTC-037 GSCs = experiment: MTS viability, VTC-037 GSCs; assay type: cell-based, human; settings: VTC-037 adherent GSCs, TMZ 50 μM, 4 days
Protocol: as §1

VTC-034 GSCs = experiment: Caspase 3/7 activity, VTC-034 GSCs; assay type: cell-based, human; settings: VTC-034 adherent GSCs, 10, 50 or 100 μM, 48 h, Caspase-Glo 3/7
Protocol: as §1

[1] = tested on: newly diagnosed GBM patients; settings: surgical resection, radiotherapy, and chemotherapy with temozolomide, ref [1]-[3]; cited from earlier work
Excerpt: Glioblastoma (GBM) is a highly malignant and lethal cancer of the central nervous system. The current multimodal therapy for newly diagnosed GBM patients includes surgical resection, radiotherapy, and chemotherapy with temozolomide (TMZ), conferring a median survival of only 14.6 months, with recent results from phase 3 clinical trials showing an extension up to 20 months, although using more stringent inclusion criteria that limit generalizability.

Cn1nnc2c(C(N)=O)ncn2c1=O [TMZ, temozolomide, reference compound]
GSC viability with TMZ alone (MTS) (VTC-001 GSCs): resistant to TMZ treatment | GSC viability with TMZ alone (MTS) (VTC-037 GSCs): resistant to TMZ treatment | Apoptosis induction (caspase 3/7 activity) (VTC-034 GSCs): inefficient in inducing apoptosis | Median survival [1]: 14.6 months
